Where two headings read alike, the source gives them in different places.
What was measured:
[1] = (iii) Acute toxicity (LD50) in mice; details: mouse, in vivo, mortality within 7 days
Protocol: (iii) Male dd-strain mice were used. Each group was composed of 10 animals. The test compound was administered intraperitoneally or orally to the animals. The LD50 (mg/kg) was calculated from the mortality within 7 days after administration of the test compound.

[2] = test system: Cholesterol and triglyceride in the serum; experiment: (ii) Serum cholesterol and triglyceride reduction in rats fed a conventional diet; type: in vivo, Male Sprague-Dowley rats; details: rats on conventional diet, test compound 0.1% (W/W) in diet, oral, 5 days, control = 100%
Protocol: (i) Male Sprague-Dowley rats were used. Each group was composed of 8 animals. Rats were fed a diet containing 1% of cholesterol. The test compound was orally administered to the animal by feeding with the diet to which the compound was blended in a ratio of 0.1% (W/W) for 5 days. Cholesterol and triglyceride in the serum were determined by the standard methods using an autoanalyzer (Technicon Inc.). The levels in the control group were considered as 100% and the reduction rate in the test group was calculated. (ii) With the exception that rats were fed a conventional diet instead of the diet containing 1% cholesterol, a test was carried out in the same condition (rats used, administration method, period, concentration of test compound and cholesterol and triglyceride determination) as in the above test (i).

[3] = test system: Cholesterol and triglyceride in the serum; experiment: (i) Serum cholesterol and triglyceride reduction in rats fed a diet containing 1% of cholesterol; type: in vivo, Male Sprague-Dowley rats; details: rats on diet containing 1% cholesterol, test compound 0.1% (W/W) in diet, oral, 5 days, control = 100%
Protocol: (i) Male Sprague-Dowley rats were used. Each group was composed of 8 animals. Rats were fed a diet containing 1% of cholesterol. The test compound was orally administered to the animal by feeding with the diet to which the compound was blended in a ratio of 0.1% (W/W) for 5 days. Cholesterol and triglyceride in the serum were determined by the standard methods using an autoanalyzer (Technicon Inc.). The levels in the control group were considered as 100% and the reduction rate in the test group was calculated.

blood cholesterol = experiment: (iv) Blood cholesterol reduction in hyperlipemic monkeys fed a diet containing 0.25% cholesterol; type: in vivo; details: hyperlipemic Rhesus monkeys, diet with 0.25% cholesterol; diet containing 0.7% (W/W) test compound, 15 days; vs control group
[4] = ip, intraperitoneal, read-out: LD50 Intraperitoneal administration
[5] = oral, read-out: LD50 Oral administration

Compound | LD50 at 168 h [1, 4] [mg/kg] | LD50 at 168 h [1, 5] [mg/kg] | Reduction Rate (%) Cholesterol [2] [%] | Reduction Rate (%) Triglyceride [2] [%] | Reduction Rate (%) Cholesterol [3] [%] | Reduction Rate (%) Triglyceride [3] [%] | reduction activity of blood cholesterol (blood cholesterol)
CCCCCCCCCCCCCCCCNc1ccc(-c2nc(CC(=O)[O-])c(OCC)o2)cc1.[Na+] | > 1000 | > 2500 | 26 | 44 | 31 | 28 | outstanding reduction activity
CCCCCCCCCCCCCCCCOc1ccc(-c2nc(CC(=O)O)c(OCC)o2)cc1 [Compound A, 2-(4-n-Hexadecyloxyphenyl)-5-ethoxy-4-oxazoleacetic acid] | > 1000 | > 2500 | 29 | 44 | 21 | 35 | outstanding reduction activity
CCCCCCCCCCCCCCCCOc1ccc(-c2nc(CC(=O)O)c(Oc3ccc(Cl)cc3)o2)cc1 [Compound C, 2-(4-n-Hexadecyloxyphenyl)-5-(4-chlorophenoxy)-4-oxazoleacetic acid] |  |  |  |  | 31 | 37 | 
CCOc1oc(-c2ccc(OCc3ccc(Cl)cc3)cc2)nc1CC(=O)O [Compound D, 2-[4-(4-Chlorobenzyloxy)phenyl]-5-ethoxy-4-oxazoleacetic acid] |  |  | 19 | 53 | 37 | 42 | 
CCOC(=O)C(C)(C)Oc1ccc(Cl)cc1 [Compound E, Clofibrate, reference compound] | > 1000 | > 1450 | 23 | 34 | 22 | 23 | 

Source: patent US4365066A, “2(4-n-Hexadecyl amino or oxy phenyl) 5 ethoxy oxazoleacetic acid derivatives” (Yoshitomi Pharmaceutical Industries Ltd., priority 1979, dated 1982)
